The values that follow come from ChEMBL document CHEMBL5053545, “Iterative Structure-Based Optimization of Short Peptides Targeting the Bacterial Sliding Clamp” (J Med Chem, 2021).

One may read the Kd as a measure of binding affinity in units of concentration. As a reminder, the IC50 is the midpoint of a concentration-inhibition curve. Higher therefore signals a need for much substance.

Test [1] in a line: Binding affinity to Escherichia coli sliding clamp assessed as dissociation constant by ITC analysis. For orientation: Isothermal titration calorimetry measures the heat released or taken up as one component is titrated into another.
Test [2] relates to Escherichia coli. The experiment in a line: Binding affinity to Escherichia coli sliding clamp assessed as gibbs free energy change by ITC analysis.
For test [3], the system named is Escherichia coli. Put plainly: Binding affinity to Escherichia coli sliding clamp assessed as association rate constant by ITC analysis.
The test system of test [4] is Escherichia coli. The experiment in a line: Binding affinity to Escherichia coli sliding clamp assessed as dissociation rate constant by ITC analysis.
Test [5] is described as follows: Inhibition of SC-dependent DNA replication in Escherichia coli using pU118 DNA as substrate preincubated for 10 mins followed by substrate addition and measured after 6 mins by PAGE electrophoresis.
Test [6] has as its system Escherichia coli. The experiment in a line: Antimicrobial activity against Escherichia coli D22 at 128 ug/ml incubated 18 to 24 hrs by broth microdilution method. The note with it: dose 128.0 µg/ml, time 18-24 hrs. It is filed as functional, organism-based.

Molecules are shown by their SMILES. The source made the active and inactive calls. The rule behind the calls is not given here. Where a SMILES comes first, the peptide text is derived from it. [ ]: non-standard residue; d: D form. The star is where a group is joined. Acryloyl(3-(3-pyridyl),E) = O=C(/C=C/c1cccnc1)*; Phe(3,4-Cl2) = N[C@@H](Cc1ccc(Cl)c(Cl)c1)C(=O)O; Oic = O=C(O)[C@@H]1C[C@@H]2CCCC[C@@H]2N1; Cha = N[C@@H](CC1CCCCC1)C(=O)O; NMeD = CN[C@@H](CC(=O)O)C(=O)O; X1 = O=C(/C=C/c1ccccc1)*; Sar = CNCC(=O)O

Take `CC(=O)N[C@@H](CCC(N)=O)C(=O)N[C@@H](CC1CCCCC1)C(=O)N[C@@H](CC(=O)O)C(=O)N[C@@H](CC(C)C)C(=O)N[C@@H](Cc1ccccc1)C(=O)O` (Ac-Q[Cha]DLF-OH): in test [1], the Kd is 194 nM. The deltaG in the test on Escherichia coli [2] was -9.2 kcal/mol. The K was 4 10^4/M/s in the test with Escherichia coli [3] and 7.4 10^-3/s with Escherichia coli [4]. This compound also returned an IC50 in test [5] of 3200 nM.
On to `CC(=O)N[C@@H](CCC(N)=O)C(=O)N[C@@H](CC1CCCCC1)C(=O)N[C@@H](CC(=O)O)C(=O)N[C@@H](CC(C)C)C(=O)N1[C@H](C(=O)N[C@@H](Cc2ccc(Cl)c(Cl)c2)C(=O)O)C[C@@H]2CCCC[C@@H]21` (Ac-Q[Cha]DL[Oic][Phe(3,4-Cl2)]-OH), for which the Kd in test [1] turned out to be 39 nM. The deltaG in the test with Escherichia coli [2] is -10.1 kcal/mol. Also, the K in the test on Escherichia coli [3] is 6 10^4/M/s; with Escherichia coli [4], 2.3 10^-3/s. Moreover, in test [5], the IC50 stood at 150 nM. In addition, the outcome with Escherichia coli [6] was inactive.
As to `CC(=O)N[C@@H](CCC(N)=O)C(=O)N[C@@H](CC1CCCCC1)C(=O)N[C@@H](CC(=O)O)C(=O)N[C@@H](CC(C)C)C(=O)N(C)CC(=O)N[C@@H](CC(C)C)C(=O)O` (Ac-Q[Cha]DL[Sar]L-OH), in test [1], the Kd was found to be 583 nM. Further, the deltaG with Escherichia coli [2] was -8.5 kcal/mol. Moreover, the K in the test with Escherichia coli [3] was 4 10^4/M/s; in the test with Escherichia coli [4] it was 2.1 10^-2/s. Further, in the test with Escherichia coli [6], the result was inactive.
On the same counts, the results for `CC(C)C[C@H](NC(=O)[C@H](CC(=O)O)NC(=O)[C@H](CC1CCCCC1)NC(=O)[C@H](CCC(N)=O)NC(=O)/C=C/c1ccccc1)C(=O)N[C@@H](Cc1ccccc1)C(=O)O` (X1-Q[Cha]DLF-OH) are 129 nM, -9.4 kcal/mol, 4.6 10^4/M/s, 6.5 10^-3/s and “inactive”.
Consider `CC(C)C[C@H](NC(=O)[C@H](CC(=O)O)N(C)C(=O)[C@H](CC1CCCCC1)NC(=O)[C@H](CCC(N)=O)NC(=O)/C=C/c1cccnc1)C(=O)N1CCC[C@H]1C(=O)N[C@@H](Cc1ccccc1)C(=O)O` ({Acryloyl(3-(3-pyridyl),E)}-Q[Cha][NMeD]LPF-OH), for which the Kd in test [1] worked out at 35 nM. For the same compound, the deltaG in the test on Escherichia coli [2] is -10.2 kcal/mol. In addition, the K was 1.4 10^5/M/s with Escherichia coli [3] and 5.2 10^-3/s in the test with Escherichia coli [4]. Moreover, the result in the test on Escherichia coli [6] was inactive.
Turning to `CC(C)C[C@H](NC(=O)[C@H](CC(=O)O)N(C)C(=O)[C@H](CC1CCCCC1)NC(=O)[C@H](CCC(N)=O)NC(=O)/C=C/c1cccnc1)C(=O)N[C@@H](Cc1ccc(Cl)c(Cl)c1)C(=O)O` ({Acryloyl(3-(3-pyridyl),E)}-Q[Cha][NMeD]L[Phe(3,4-Cl2)]-OH), the Kd in test [1] is 46 nM. The deltaG with Escherichia coli [2] was -10.1 kcal/mol. Also, the K in the test on Escherichia coli [3] is 1.1 10^5/M/s; in the test with Escherichia coli [4], 5.5 10^-3/s. Also, the outcome with Escherichia coli [6] was inactive.
On the same counts, the results for `CC(C)C[C@H](NC(=O)[C@H](CC(=O)O)NC(=O)[C@H](CC1CCCCC1)NC(=O)[C@H](CCC(N)=O)NC(=O)/C=C/c1cccnc1)C(=O)N[C@@H](Cc1ccccc1)C(=O)O` ({Acryloyl(3-(3-pyridyl),E)}-Q[Cha]DLF-OH) are 156 nM, -9.3 kcal/mol, 4.6 10^4/M/s, 7.4 10^-3/s and “inactive”.
